Results as given in patent US9999616B2 (ZENITH EPIGENETICS LTD., priority 2013, dated 2018).

Legend:
Human AML MV-4-11 cells = assay: Inhibition of cell proliferation in MV4-11 cells (CellTiter Aqueous One); assay type: cell-based; conditions: for IC50: MV4-11, 72 h; for Cell Proliferation activity: 72 h
Description: MV4-11 cells (CRL-9591) were plated at a density of 5×10^4 cells per well in 96 well flat bottom plates and treated with increasing concentrations of test compound or DMSO (0.1%) in IMDM media containing 10% FBS and penicillin/streptomycin. Triplicate wells were used for each concentration and a well containing only media was used as a control. Plates were incubated at 37° C., 5% CO2 for 72 h before adding 20 µL of the CellTiter Aqueous One Solution (Promega) to each well and incubated at 37° C., 5% CO2 for an additional 3-4 h. The absorbance was read at 490 nm in a spectrophotometer and the percentage of cell titer relative to DMSO-treated cells was calculated after correcting for background by subtracting the blank well's signal. IC50 values were calculated using the GraphPad Prism software.

[1] = molecular target: Brd4 bromodomain 1 (BRD4(1)) (Homo sapiens, UniProt O60885); assay: Inhibition of tetra-acetylated histone H4 binding to Brd4 bromodomain 1, measured by FRET (HTRF); parameters: made in house; host or cells: E. coli BL21(DE3); conditions: 2 h at room temperature
Description: Proteins were cloned and overexpressed with a N-terminal 6×His tag, then purified by nickel affinity followed by size exclusion chromatography. Briefly, E. coli BL21(DE3) cells were transformed with a recombinant expression vector encoding N-terminally Nickel affinity tagged bromodomains from Brd2, Brd3, Brd4. Cell cultures were incubated at 37° C. with shaking to the appropriate density and induced overnight with IPTG. The supernatant of lysed cells was loaded onto Ni-IDA column for purification. Eluted protein was pooled, concentrated and further purified by size exclusion chromatography. Fractions representing monomeric protein were pooled, concentrated, aliquoted, and frozen at −80° C. for use in subsequent experiments.
Binding of tetra-acetylated histone H4 and BET bromodomains was confirmed by a Homogenous Time Resolved Fluorescence Resonance Energy Transfer (HTRF®) method. N-terminally His-tagged bromodomains (200 nM) and biotinylated tetra-acetylated histone H4 peptide (25-50 nM, Millipore) were incubated in the presence of Europium Cryptate-labeled streptavidin (Cisbio Cat. #610SAKLB) and XL665-labeled monoclonal anti-His antibody (Cisbio Cat. #61HISXLB) in a white 96 well microtiter plate (Greiner). For inhibition assays, serially diluted test compound was added to these reactions in a 0.2% final concentration of DMSO. Duplicate wells were used for each concentration tested. Final buffer concentrations were 30 mM HEPES pH 7.4, 30 mM NaCl, 0.3 mM CHAPS, 20 mM phosphate pH 7.0, 320 mM KF, 0.08% BSA. After a 2 h incubation at room temperature, fluorescence was measured at 665 and 620 nm with a SynergyH4 plate reader (Biotek). The binding inhibitory activity was shown by a decrease in 665 nm relative to 620 nm fluorescence. IC50 values were determined from a dose response curve.

[2] = tested on: c-myc in Human AML MV4-11 cells; assay: Inhibition of cMYC expression (mRNA, real-time PCR) in MV4-11 cells; assay type: cell-based; conditions: 3 h treatment, cMYC mRNA by real-time PCR
Description: MV4-11 cells (CRL-9591) were plated at a density of 2.5×10^4 cells per well in 96 well U-bottom plates and treated with increasing concentrations of test compound or DMSO (0.1%) in IMDM media containing 10% FBS and penicillin/streptomycin, and incubated for 3 h at 37′C. Triplicate wells were used for each concentration. Cells were pelleted by centrifugation and harvested using the mRNA Catcher PLUS kit according to manufacturer's instructions. The eluted mRNA isolated was then used in a one-step quantitative real-time PCR reaction, using components of the RNA UltraSense™ One-Step Kit (Life Technologies) together with Applied Biosystems TaqMan® primer-probes for cMYC and Cyclophilin. Real-time PCR plates were run on a ViiA™7 real time PCR machine (Applied Biosystems), data was analyzed, normalizing the Ct values for cMYC to an internal control, prior to determining the fold expression of each sample, relative to the control.

CSc1nc2c(-c3c(C)nn(C)c3C)cc(-c3c(C)noc3C)cc2n1C [Example Compound 188, 3,5-dimethyl-4-(1-methyl-2-(methylthio)-4-(1,3,5-trimethyl-1H-pyrazol-4-yl)-1H-benzo[d]imidazol-6-yl)isoxazole]
IC50 (Human AML MV-4-11 cells): 300 to 3000 nM
IC50 [1]: 300 to 3000 nM
IC50 [2]: 300 to 3000 nM

Cc1nc2c(-c3cccc(C(N)=O)c3C)cc(-c3c(C)noc3C)cc2[nH]1 [Example Compound 126, 3-(6-(3,5-dimethylisoxazol-4-yl)-2-methyl-1H-benzo[d]imidazol-4-yl)-2-methylbenzamide]
IC50 (Human AML MV-4-11 cells): 300 to 3000 nM
IC50 [1]: ≤ 300 nM
IC50 [2]: ≤ 300 nM

Cc1noc(C)c1-c1cc(-c2c(C)noc2C)c2nn[nH]c2c1 [Example Compound 95, 4,4′-(1H-benzo[d][1,2,3]triazole-4,6-diyl)bis(3,5-dimethylisoxazole)]
Cell Proliferation activity (Human AML MV-4-11 cells): Not active
IC50 [1]: 300 to 3000 nM

CSc1nc2c(-c3c(C)nn(C)c3C)cc(-c3c(C)noc3C)cc2[nH]1 [Example Compound 187, 3,5-dimethyl-4-(2-(methylthio)-4-(1,3,5-trimethyl-1H-pyrazol-4-yl)-1H-benzo[d]imidazol-6-yl)isoxazole]
IC50 (Human AML MV-4-11 cells): ≤ 300 nM
IC50 [1]: ≤ 300 nM
IC50 [2]: ≤ 300 nM

Cc1noc(C)c1-c1cc(-c2c(C)nn(C)c2C)c2nc(NC3CCOCC3)[nH]c2c1 [Example Compound 190, 6-(3,5-dimethyl-isoxazol-4-yl)-N-(tetrahydro-2H-pyran-4-yl)-4-(1,3,5-trimethyl-1H-pyrazol-4-yl)-1H-benzo[d] imidazol-2-amine]
IC50 (Human AML MV-4-11 cells): ≤ 300 nM
IC50 [1]: ≤ 300 nM
IC50 [2]: 300 to 3000 nM

Cc1noc(C)c1-c1cc(Nc2ccc(Cl)cc2)c2nc[nH]c2c1 [Example Compound 40, N-(4-chlorophenyl)-6-(3,5-dimethyl-isoxazol-4-yl)-1H-benzo[d] imidazol-4-amine]
IC50 (Human AML MV-4-11 cells): 3000 to 30000 nM
IC50 [1]: ≤ 300 nM

Cc1noc(C)c1-c1cc(-c2c(C)nn(C)c2C)c2nc(N3CCOCC3)[nH]c2c1 [Example Compound 184, 4-(6-(3,5-dimethyl-isoxazol-4-yl)-4-(1,3,5-trimethyl-1H-pyrazol-4-yl)-1H-benzo[d]imidazol-2-yl)morpholine]
IC50 (Human AML MV-4-11 cells): ≤ 300 nM
IC50 [1]: ≤ 300 nM
IC50 [2]: ≤ 300 nM

Cc1ccc(C(N)=O)cc1-c1cc(-c2c(C)noc2C)cc2[nH]c(NC3CCOCC3)nc12 [Example Compound 200, 3-(6-(3,5-dimethyl-isoxazol-4-yl)-2-((tetrahydro-2H-pyran-4-yl)amino)-1H-benzo[d]imidazol-4-yl)-4-methyl benzamide]
IC50 (Human AML MV-4-11 cells): ≤ 300 nM
IC50 [1]: ≤ 300 nM
IC50 [2]: ≤ 300 nM

Cc1noc(C)c1-c1cc(-c2cnn(C)c2)c2nc[nH]c2c1 [Example Compound 29, 3,5-dimethyl-4-(4-(1-methyl-1H-pyrazol-4-yl)-1H-benzo[d]imidazol-6-yl)isoxazole]
IC50 (Human AML MV-4-11 cells): 3000 to 30000 nM
IC50 [1]: ≤ 300 nM
IC50 [2]: 300 to 3000 nM

Cc1noc(C)c1CNc1cc(-c2c(C)noc2C)cc2[nH]cnc12 [Example Compound 39, 6-(3,5-dimethyl-isoxazol-4-yl)-N-((3,5-dimethyl-isoxazol-4-yl)methyl)-1H-benzo[d] imidazol-4-amine]
IC50 (Human AML MV-4-11 cells): 300 to 3000 nM
IC50 [1]: ≤ 300 nM
IC50 [2]: 300 to 3000 nM

Cc1ccc(C#N)cc1-c1cc(-c2c(C)noc2C)cc2[nH]c(NC3CCOCC3)nc12 [Example Compound 198, 3-(6-(3,5-dimethyl-isoxazol-4-yl)-2-((tetrahydro-2H-pyran-4-yl)amino)-1H-benzo[d]imidazol-4-yl)-4-methyl benzonitrile]
IC50 (Human AML MV-4-11 cells): ≤ 300 nM
IC50 [1]: ≤ 300 nM
IC50 [2]: ≤ 300 nM

Cc1noc(C)c1-c1cc(-c2c(C)nn(C)c2C)c2nc(NC3CCN(C)CC3)[nH]c2c1 [Example Compound 185, 6-(3,5-dimethyl-isoxazol-4-yl)-N-(1-methyl-piperidin-4-yl)-4-(1,3,5-trimethyl-1H-pyrazol-4-yl)-1H-benzo[d] imidazol-2-amine]
IC50 (Human AML MV-4-11 cells): 300 to 3000 nM
IC50 [1]: ≤ 300 nM
IC50 [2]: 300 to 3000 nM

CCNc1nc2c(-c3cccnc3C)cc(-c3c(C)noc3C)cc2[nH]1 [Example Compound 100, 6-(3,5-dimethylisoxazol-4-yl)-N-ethyl-4-(2-methylpyridin-3-yl)-1H-benzo[d]imidazol-2-amine]
IC50 (Human AML MV-4-11 cells): 300 to 3000 nM
IC50 [1]: ≤ 300 nM
IC50 [2]: ≤ 300 nM

Cc1nc2c(-c3cncc(F)c3C)cc(-c3c(C)noc3C)cc2[nH]1 [Example Compound 125, 4-(4-(5-fluoro-4-methyl-pyridin-3-yl)-2-methyl-1H-benzo[d]imidazol-6-yl)-3,5-dimethyl isoxazole]
IC50 (Human AML MV-4-11 cells): 300 to 3000 nM
IC50 [1]: ≤ 300 nM
IC50 [2]: 300 to 3000 nM

Cc1nc2c(-c3ccc4c(c3)OCO4)cc(-c3c(C)noc3C)cc2[nH]1 [Example Compound 103, 4-(4-(benzo[d] [1,3]dioxol-5-yl)-2-methyl-1H-benzo[d]imidazol-6-yl)-3,5-dimethyl isoxazole]
IC50 (Human AML MV-4-11 cells): 300 to 3000 nM
IC50 [1]: ≤ 300 nM
IC50 [2]: 300 to 3000 nM

Cc1noc(C)c1-c1cc(NCc2ccccn2)c2nc[nH]c2c1 [Example Compound 47, 6-(3,5-dimethyl-isoxazol-4-yl)-N-(pyridin-2-ylmethyl)-1H-benzo[d] imidazol-4-amine]
IC50 (Human AML MV-4-11 cells): 300 to 3000 nM
IC50 [1]: ≤ 300 nM
IC50 [2]: 300 to 3000 nM

Cc1noc(C)c1-c1cc(-c2ccc[nH]c2=O)c2nc[nH]c2c1 [Example Compound 56, 3-(6-(3,5-dimethyl-isoxazol-4-yl)-1H-benzo[d]imidazol-4-yl)pyridin-2(1H)-one]
Cell Proliferation activity (Human AML MV-4-11 cells): Not active
IC50 [1]: 300 to 3000 nM

Cc1ccc(C(N)=O)cc1-c1cc(-c2c(C)noc2C)cc2[nH]c(N3CCOCC3)nc12 [Example Compound 197, 3-(6-(3,5-dimethyl-isoxazol-4-yl)-2-morpholino-1H-benzo[d]imidazol-4-yl)-4-methyl benzamide]
IC50 (Human AML MV-4-11 cells): 300 to 3000 nM
IC50 [1]: ≤ 300 nM
IC50 [2]: 300 to 3000 nM

Cc1nc2c(-c3cccnc3N)cc(-c3c(C)noc3C)cc2[nH]1 [Example Compound 82, 3-(6-(3,5-dimethyl-isoxazol-4-yl)-2-methyl-1H-benzo[d]imidazol-4-yl)pyridin-2-amine]
IC50 [1]: 300 to 3000 nM

Cc1noc(C)c1-c1cc(-c2c(C)noc2C)c2nc(NC3CCN(C)CC3)[nH]c2c1 [Example Compound 232, 4,6-bis(3,5-dimethyl-isoxazol-4-yl)-N-(1-methyl-piperidin-4-yl)-1H-benzo[d] imidazol-2-amine]
IC50 (Human AML MV-4-11 cells): 300 to 3000 nM
IC50 [1]: ≤ 300 nM

Cc1noc(C)c1-c1cc(-c2c(C)nn(C)c2C)cc2[nH]cnc12 [Example Compound 14, 3,5-dimethyl-4-(6-(1,3,5-trimethyl-1H-pyrazol-4-yl)-1H-benzo[d]imidazol-4-yl)isoxazole]
IC50 [1]: 3000 to 30000 nM

Cc1ccc(C#N)cc1-c1cc(-c2c(C)noc2C)cc2[nH]c(N3CCOCC3)nc12 [Example Compound 193, 3-(6-(3,5-dimethyl-isoxazol-4-yl)-2-morpholino-1H-benzo[d]imidazol-4-yl)-4-methyl benzonitrile]
IC50 [1]: ≤ 300 nM
